# Measurements as given in patent US11279726B2, “Norbornene-based amphipathic compound and utilization thereof” (Industry-University Cooperation Foundation Hanyang …, priority 2017, dated 2022).
# Tests used:
# [1] = Critical micelle concentration by fluorescent staining with diphenylhexatriene (DPH); assay type: physicochemical; details: aqueous solution
# Experimental: A method for measuring CMC is not particularly limited, and a method widely known in the art may be used, for example, by fluorescence staining with diphenylhexatriene (DPH).
# (§1) To identify the characteristics of NBMs synthesized in Preparation Example 1 to 6 according to the synthetic method of Example 1, molecular weights (MWs) of NBMs, critical micelle concentrations (CMCs) and hydrodynamic radii (Rh) of the micelles were measured.
# (§2) Specifically, the critical micelle concentrations (CMCs) were measured by fluorescent staining with diphenylhexatriene (DPH), and the hydrodynamic radii (Rh) of the micelle formed with individual agents (1.0 wt %) were measured by dynamic light scattering (DLS).
# [2] = Hydrodynamic radius / size distribution of micelles by dynamic light scattering (DLS); assay type: physicochemical; details: 1.0 wt % agent
# Experimental: A method for measuring the radius of a micelle is not particularly limited, and a method well known in the art may be used, and for example, the radius thereof may be measured using a dynamic light scattering (DLS) experiment.
# as §1, §2
# [3] = biological target: T1, uric acid-xanthine/H+ symporter (UapA) (Emericella nidulans, UniProt Q07307, G411V); assay: UapA extraction and thermal stability by fluorescence size exclusion chromatography (FSEC); set-up: species or system Aspergillus nidulans; details: 1.0 wt % amphiphile, 10 minutes at 40° C.; compared with DDM
# T1 construct: made in house; host or cells: Saccharomyces cerevisiae FGY217
# Experimental: An experiment for measuring the structural stability of uric acid-xanthine/H+ symporter (UapA) isolated from Aspergillus nidulans using NBMs was performed. The structural stability of UapA was evaluated using […].
# Specifically, UapAG411VΔ1-11 (hereinafter, referred to as “UapA”) was expressed as GFP fusion in Saccharomyces cerevisiae FGY217 strain and isolated in a sample buffer (20 mM Tris (pH 7.5), 150 mM NaCl, 0.03% DDM, 0.6 mM xanthine) according to the method described in the literature written by J. Leung et al. (Mol. Membr. Biol. 2013, 30, 32-42). Membranes containing UapA were resuspended in PBS, 10 mM imidazole pH 8.0, 150 mM NaCl, 10% glycerol, and the protein concentration was measured. The membranes were adjusted to a concentration of 1 mg·ml^−1 and 1 ml aliquots were individually incubated with DDM or NBMs at a final amphiphilic material concentration of 1.0 wt % for 10 minutes at 40° C. 100 μl aliquots were removed from each tube, and a fluorescence reading was taken for each sample before and after ultracentrifugation at 150,000 g for 10 minutes to remove insoluble material. The remaining soluble fraction for each condition was submitted to fluorescent size exclusion chromatography (FSEC) using a Superose 6 column (GE Healthcare) equilibrated with DDM.
# [4] = biological target: T2, human β2 adrenergic receptor (β2AR) (Homo sapiens, UniProt P07550); assay: β2AR stability: [3H]-DHA ligand binding activity of solubilized receptor
# T2 construct: made in house
# Experimental: An experiment of measuring the stability of human β2 adrenergic receptor (β2AR) and G-protein-coupled receptor (GPCR) for NBMs was carried out. That is, the receptor was extracted from the cell membranes by DDM and purified in the same amphiphilic compound. The DDM-purified receptor was diluted in individual DDM- or NBM-containing buffers to adjust the final compound concentration to be CMC+0.2 wt %. The receptor stability was assessed by measuring ligand binding activity using [3H]-DHA.
# To measure long-term stability of human β2AR with NBMs (D-NBM-C11 and X-NBM-C11) showing an excellent ligand binding activity of the receptor in the previous experiment, a radio-labeled ligand binding experiment was performed by the following method. β2AR was purified using 0.1% DDM (D. M. Rosenbaum et al., Science, 2007, 318, 1266-1273), and finally concentrated to approximately 10 mg/ml (approximately 200 μM). A main binding mixture containing 10 nM [^3H]-DHA supplemented with 0.5 mg/ml BSA was prepared in 0.2% amphiphilic compound (DDM or NBMs (D-NBM-C11 and X-NBM-C11)) using β2AR purified with DDM. The receptor purified with DDM or NBMs was incubated with 10 nM [^3H]-DHA at room temperature for 30 minutes. The mixture was loaded onto a G-50 column, the fractions were collected in a 1 ml binding buffer (20 mM HEPES pH 7.5, 100 mM NaCl, containing 0.5 mg/ml BSA and 20× CMC individual amphiphilic compounds). In addition, each fraction was supplemented with a 15 ml scintillation fluid, and receptor-bound [^3H]-DHA was measured using a scintillation counter (Beckman) at regular intervals for 3 days. The binding capacity of [^3H]-DHA was shown as a bar chart (FIG. 11a).
# In addition, β2AR was extracted from the membrane using 1.0 wt % of DDM or X-NBM-C11 and purified at 0.2 wt % for the same individual amphiphilic compounds. Structural stability of the receptor was assessed by ligand binding activity, which was measured with sample aliquots at regular intervals during 7-day incubation at room temperature. Each experiment was carried out in triplicate (FIG. 12b).
# β2AR-Gs complex = β2AR-Gs complex (Homo sapiens, UniProt P07550); assay: Negative stain EM analysis of β2AR-Gs complex
# Experimental: A β2AR-Gs protein complex was prepared for electron microscopy using the conventional negative staining protocol, and imaged at room temperature with a Tecnai T12 electron microscope operated at 120 kV using low-dose procedures. Images were recorded at a magnification of 71,138× and a defocus value of approximately 1.4μ using a Gatan US4000 CCD camera. All images were binned (2×2 pixels) to obtain a pixel size of 4.16 A at the specimen level. Particles were manually excised using e2boxer (part of the EMAN2 software suite). 2D reference-free alignment and classification of particle projections were performed using ISAC. 14,556 projections of β2AR-Gs were subjected to ISAC, producing 199 classes consistent over two-way matching and accounting for 10,100 particle projections.
# [5] = biological target: T3, Salmonella typhimurium melibiose permease (MelBSt) (Salmonella typhimurium, UniProt P30878); assay: MelBSt extraction and thermostability (SDS-PAGE / western blotting); details: 1.5 wt %
# T3 construct: made in house; host or cells: E. coli DW2 (ΔmelB, ΔlacZY)
# Experimental: An experiment of measuring structural stability of MelBSt (Salmonella typhimurium melibiose permease) protein with NBMs was carried out. The MelBSt protein was extracted from the membrane using NBMs or DDM, and the amounts and structure of the extracted proteins were analyzed by SDS-PAGE and western blotting. The concentration of the used amphiphilic compound was 1.5 wt %. The proteins were extracted at four temperatures (0, 45, 55, and 65° C.) and incubated at the same temperature for 90 minutes, and the amounts of the remaining proteins solubilized in an aqueous solution were measured, so as to simultaneously evaluate both performances of the compound such as protein extraction efficiency and stabilization activity. The amounts of the proteins extracted and stabilized by respective amphiphilic molecules were represented as relative values (%) to the amounts of total proteins contained in the membrane sample not treated with an amphiphilic molecule.
# Specifically, Salmonella typhimurium melibiose permease (MelBSt) with a C-terminal 10-His tag was expressed in E. coli DW2 cells (^ΔmelB and ^ΔlacZY) using plasmid pK95^ΔAHB/WT MelBSt/CH10. Cell growth and membrane preparation were carried out according to the method described in the literature written by A. S. Ethayathulla et al. (Nat. Commun. 2014, 5, 3009). Protein assays were carried out with a Micro BCA kit (Thermo Scientific, Rockford, Ill.). The measurement of MelBSt stability was carried out on NBMs or DDM according to the protocol described by P. S. Chae et al. (Nat. Methods 2010, 7, 1003-1008). Membrane samples containing MelBSt (final protein concentration was 10 mg/mL) were incubated with a solubilization buffer (20 mM sodium phosphate, pH 7.5, 200 mM NaCl, 10% glycerol, 20 mM melibiose) and 1.5% (w/v) of DDM or NBMs (X-NBM-C10, D-NBM-C10, X-NBM-C11 or D-NBM-C11) at four different temperatures (0, 45, 55, 65° C.) for 90 minutes. To remove insoluble materials, following ultracentrifugation at 355,590 g using a Beckman Optimal™ MAX ultracentrifuge with TLA-100 rotor for 45 minutes at 4° C. was performed, and 20 μg of each protein sample was separated by SDS-16% PAGE, and then immunoblotted with a Penta-His-HRP antibody (Qiagen, Germantown, Md.). MelBSt was detected using SuperSignal West Pico chemiluminescent substrate by an ImageQuant LAS 4000 Biomolecular Imager (GE Health Care Life Science).
SMILES,CMC [1],CMC (wt %) [1],"Rh (nm), hydrodynamic radius of micelles [2]",Retention of monodispersed UapA-GFP peak after heating (FSEC) [3],"Long-term ligand binding activity of β2AR ([3H]-DHA) ([4]; 0.2% amphiphile, room temperature, 3 days (7 days for receptor extracted with the amphiphile))",Initial ligand binding activity of β2AR ([3H]-DHA) ([4]; DDM-purified receptor diluted to CMC+0.2 wt % amphiphile),Particle dispersity of β2AR-Gs complex in negative stain EM (β2AR-Gs complex),"MelBSt protein extraction (solubilization) efficiency ([5]; 0° C. and 45° C., 90 minutes)","MelBSt protein extraction efficiency ([5]; 0° C., 90 minutes)","Amount of solubilized MelBSt protein ([5]; 65° C., 90 minutes)",MelBSt membrane protein stabilization activity (overall) ([5]; elevated temperature)
CCCCCCCCCOCC1C2CC([C@@H]1COCCCCCCCCC)[C@H](O[C@@H]1OC(CO)[C@@H](O[C@H]3OC(CO)[C@@H](O)C(O)C3O)C(O)C1O)C2O[C@@H]1OC(CO)[C@@H](O[C@H]2OC(CO)[C@@H](O)C(O)C2O)C(O)C1O (stereo partly drawn) [D-NBM-C9],~0.012 mM,~0.0013 wt %,3.3 ± 0.04 nm,low recovery of monodispersed protein peak,,,,,,,
"CCCCCCCCCCCCO[C@@H]1O[C@H](CO)[C@@H](O[C@H]2O[C@H](CO)[C@@H](O)[C@H](O)[C@H]2O)[C@H](O)[C@H]1O [DDM, n-dodecyl-β-D-maltopyranoside, reference compound]",~0.17 mM,~0.0087 wt %,3.4 ± 0.03 nm,single monodispersed peak with relatively high intensity,rapidly decreased over time,excellent initial ligand binding activity,aggregated particles,high MelBSt protein extraction efficiency,higher protein extraction efficiency than NBMs,no MelBSt protein solubilized in an aqueous solution was detectable,
CCCCCCCCCCOCC1C2CC([C@@H]1COCCCCCCCCCC)[C@H](O[C@@H]1OC(CO)[C@@H](O[C@H]3OC(CO)[C@@H](O)C(O)C3O)C(O)C1O)C2O[C@@H]1OC(CO)[C@@H](O[C@H]2OC(CO)[C@@H](O)C(O)C2O)C(O)C1O (stereo partly drawn) [D-NBM-C10],~0.008 mM,~0.0009 wt %,3.5 ± 0.03 nm,slightly lower effect than DDM,,,,,,,excellent membrane protein stabilization activity
CCCCCCCCCOCC1C2CC([C@H]1COCCCCCCCCC)[C@H](O[C@@H]1OC(CO)[C@@H](O[C@H]3OC(CO)[C@@H](O)C(O)C3O)C(O)C1O)C2O[C@@H]1OC(CO)[C@@H](O[C@H]2OC(CO)[C@@H](O)C(O)C2O)C(O)C1O (stereo partly shown) [X-NBM-C9],~0.010 mM,~0.0011 wt %,3.7 ± 0.03 nm,more or less comparable to DDM,,,,,,,
CCCCCCCCCCOCC1C2CC([C@H]1COCCCCCCCCCC)[C@H](O[C@@H]1OC(CO)[C@@H](O[C@H]3OC(CO)[C@@H](O)C(O)C3O)C(O)C1O)C2O[C@@H]1OC(CO)[C@@H](O[C@H]2OC(CO)[C@@H](O)C(O)C2O)C(O)C1O (stereo partly shown) [X-NBM-C10],~0.007 mM,~0.0008 wt %,4.0 ± 0.02 nm,more or less comparable to DDM,,,,,,,
"CCCCCCCCCCC(CCCCCCCCCC)(CO[C@@H]1O[C@H](CO)[C@@H](O[C@H]2O[C@H](CO)[C@@H](O)[C@H](O)[C@H]2O)[C@H](O)[C@H]1O)CO[C@@H]1O[C@H](CO)[C@@H](O[C@H]2O[C@H](CO)[C@@H](O)[C@H](O)[C@H]2O)[C@H](O)[C@H]1O [MNG-3, reference compound]",,,,ineffective in preventing protein denaturation/aggregation,,,,,,,
